Assay results as given in ChEMBL document CHEMBL1201862, “PubChem BioAssay data set” (2004).
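Results reflect a 48-hour exposure of cells in 96-well plates to compound at five concentrations. GI50 is the concentration that inhibits growth by half.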 Calls of active or inactive are those of the source. No stated cut-off is given here; in the data, active = GI50 up to about 1.1 µM and inactive = higher.

Columns and labels:
Assay in all cases: DTP human tumour cell line panel, 48 h
ACHN = test system: ACHN
SF-539 = test system: SF-539
SF-295 = test system: SF-295
OVCAR-8 = test system: OVCAR-8
SK-MEL-2 = test system: SK-MEL-2
SF-268 = test system: SF-268
HL-60 = test system: HL-60
OVCAR-5 = test system: OVCAR-5
KM-20L2 = test system: KM-20L2
NCI-H23 = test system: NCI-H23
HCT-15 = test system: HCT-15
OVCAR-3 = test system: OVCAR-3
HOP-62 = test system: HOP-62
CCRF-CEM = test system: CCRF-CEM
786-0 = test system: 786-0
KM12 = test system: KM12
TK-10 = test system: TK-10
SNB-19 = test system: SNB-19
CAKI-1 = test system: CAKI-1
IGROV-1 = test system: IGROV-1
A498 = test system: A498
K562 = test system: K562
XF498 = test system: XF498
SNB-75 = test system: SNB-75
HCC 2998 = test system: HCC 2998
NCI-H522 = test system: NCI-H522
UACC-62 = test system: UACC-62
DMS-114 = test system: DMS-114
A549 = test system: A549
M14 = test system: M14
DLD-1 = test system: DLD-1
UACC-257 = test system: UACC-257
SR = test system: SR
M19-MEL = test system: M19-MEL
DMS-273 = test system: DMS-273
HT-29 = test system: HT-29
COLO 205 = test system: COLO 205
HOP-18 = test system: HOP-18
SW-620 = test system: SW-620
Malme-3M = test system: Malme-3M
LOX IMVI = test system: LOX IMVI
NCI-H226 = test system: NCI-H226
SK-MEL-5 = test system: SK-MEL-5
OVCAR-4 = test system: OVCAR-4
HCT-116 = test system: HCT-116
MOLT-4 = test system: MOLT-4
NCI-H460 = test system: NCI-H460
SNB-78 = test system: SNB-78
SK-OV-3 = test system: SK-OV-3
EKVX = test system: EKVX
U-251 = test system: U-251
RXF 393 = test system: RXF 393
SN12C = test system: SN12C
SK-MEL-28 = test system: SK-MEL-28
LXFL 529 = test system: LXFL 529
UO-31 = test system: UO-31
HOP-92 = test system: HOP-92
RPMI-8226 = test system: RPMI-8226

## Cc1c(Cl)cccc1NC(=O)C(=O)c1c(O)c2ccc(O)cc2oc1=O
ACHN
  GI50: > 100 µM (inactive)
SF-539
  GI50: > 100 µM (inactive)
SF-295
  GI50: > 100 µM (inactive)
OVCAR-8
  GI50: > 100 µM (inactive)
SK-MEL-2
  GI50: > 100 µM (inactive)
SF-268
  GI50: > 100 µM (inactive)
HL-60
  GI50: > 100 µM (inactive)
OVCAR-5
  GI50: > 100 µM (inactive)
KM-20L2
  GI50: > 100 µM (inactive)
NCI-H23
  GI50: > 100 µM (inactive)
HCT-15
  GI50: > 100 µM
OVCAR-3
  GI50: > 100 µM (inactive)
HOP-62
  GI50: > 100 µM (inactive)
CCRF-CEM
  GI50: > 100 µM (inactive)
786-0
  GI50: > 100 µM (inactive)
KM12
  GI50: > 100 µM (inactive)
TK-10
  GI50: > 100 µM (inactive)
SNB-19
  GI50: > 100 µM (inactive)
CAKI-1
  GI50: > 100 µM (inactive)
IGROV-1
  GI50: > 100 µM (inactive)
A498
  GI50: > 100 µM (inactive)
K562
  GI50: > 100 µM (inactive)
XF498
  GI50: > 100 µM (inactive)
SNB-75
  GI50: > 100 µM (inactive)
HCC 2998
  GI50: > 100 µM (inactive)
NCI-H522
  GI50: > 100 µM (inactive)
UACC-62
  GI50: > 100 µM (inactive)
DMS-114
  GI50: > 100 µM (inactive)
A549
  GI50: > 100 µM (inactive)
M14
  GI50: > 100 µM (inactive)
DLD-1
  GI50: > 100 µM (inactive)
UACC-257
  GI50: > 100 µM (inactive)
SR
  GI50: > 100 µM (inactive)
M19-MEL
  GI50: > 100 µM (inactive)
DMS-273
  GI50: > 100 µM (inactive)
HT-29
  GI50: > 100 µM (inactive)
COLO 205
  GI50: > 100 µM (inactive)
HOP-18
  GI50: > 100 µM (inactive)
SW-620
  GI50: > 100 µM (inactive)
Malme-3M
  GI50: > 100 µM (inactive)
LOX IMVI
  GI50: > 100 µM (inactive)
NCI-H226
  GI50: > 100 µM (inactive)
SK-MEL-5
  GI50: > 100 µM (inactive)
OVCAR-4
  GI50: > 100 µM (inactive)
HCT-116
  GI50: > 100 µM (inactive)
MOLT-4
  GI50: > 100 µM (inactive)
NCI-H460
  GI50: > 100 µM (inactive)
SNB-78
  GI50: > 100 µM (inactive)
SK-OV-3
  GI50: > 100 µM (inactive)
EKVX
  GI50: > 100 µM (inactive)
U-251
  GI50: > 100 µM (inactive)
RXF 393
  GI50: > 100 µM (inactive)
SN12C
  GI50: > 100 µM (inactive)
SK-MEL-28
  GI50: > 100 µM (inactive)
LXFL 529
  GI50: > 100 µM (inactive)
UO-31
  GI50: > 100 µM (inactive)
HOP-92
  GI50: > 100 µM (inactive)

## CC(CCC[C@H](C)CO)[C@H]1[C@@H](O)C(O)C2[C@@H]3C[C@@H](O)C4(O)C[C@@H](O)CC[C@]4(C)C3CC[C@@]21C (stereo partly drawn)
ACHN
  GI50: > 100 µM (inactive)
SF-539
  GI50: > 100 µM (inactive)
SF-295
  GI50: > 100 µM (inactive)
OVCAR-8
  GI50: > 100 µM (inactive)
SK-MEL-2
  GI50: > 100 µM (inactive)
SF-268
  GI50: > 100 µM (inactive)
HL-60
  GI50: 44.9 µM (inactive)
KM-20L2
  GI50: > 100 µM (inactive)
NCI-H23
  GI50: > 100 µM (inactive)
HCT-15
  GI50: > 100 µM
OVCAR-3
  GI50: > 100 µM (inactive)
HOP-62
  GI50: > 100 µM (inactive)
CCRF-CEM
  GI50: 40.9 µM (inactive)
786-0
  GI50: > 100 µM (inactive)
KM12
  GI50: > 100 µM (inactive)
TK-10
  GI50: > 100 µM (inactive)
SNB-19
  GI50: > 100 µM (inactive)
CAKI-1
  GI50: > 100 µM (inactive)
IGROV-1
  GI50: > 100 µM (inactive)
K562
  GI50: 31.8 µM (inactive)
XF498
  GI50: > 100 µM (inactive)
SNB-75
  GI50: > 100 µM (inactive)
HCC 2998
  GI50: > 100 µM (inactive)
NCI-H522
  GI50: > 100 µM (inactive)
UACC-62
  GI50: > 100 µM (inactive)
DMS-114
  GI50: 84.7 µM (inactive)
A549
  GI50: > 100 µM (inactive)
M14
  GI50: > 100 µM (inactive)
DLD-1
  GI50: > 100 µM (inactive)
UACC-257
  GI50: > 100 µM (inactive)
SR
  GI50: 36 µM (inactive)
M19-MEL
  GI50: > 100 µM (inactive)
DMS-273
  GI50: > 100 µM (inactive)
HT-29
  GI50: > 100 µM (inactive)
COLO 205
  GI50: > 100 µM (inactive)
HOP-18
  GI50: > 100 µM (inactive)
RPMI-8226
  GI50: > 100 µM (inactive)
SW-620
  GI50: > 100 µM (inactive)
Malme-3M
  GI50: > 100 µM (inactive)
LOX IMVI
  GI50: > 100 µM (inactive)
NCI-H226
  GI50: > 100 µM (inactive)
SK-MEL-5
  GI50: > 100 µM (inactive)
OVCAR-4
  GI50: > 100 µM (inactive)
HCT-116
  GI50: > 100 µM (inactive)
MOLT-4
  GI50: > 100 µM (inactive)
NCI-H460
  GI50: > 100 µM (inactive)
SNB-78
  GI50: > 100 µM (inactive)
SK-OV-3
  GI50: > 100 µM (inactive)
EKVX
  GI50: > 100 µM (inactive)
U-251
  GI50: > 100 µM (inactive)
RXF 393
  GI50: > 100 µM (inactive)
SN12C
  GI50: > 100 µM (inactive)
SK-MEL-28
  GI50: > 100 µM (inactive)
LXFL 529
  GI50: > 100 µM (inactive)
UO-31
  GI50: > 100 µM (inactive)
HOP-92
  GI50: 87.3 µM (inactive)
